{"source": "patent US20070224321A1", "about": "“Baked Goods Comprising High-Potency Sweetener” (THE COCA-COLA COMPANY, priority 2005, published 2007)", "type": "physicochemical", "procedure": "A solution of rebaudioside A (>97% pure by HPLC ) was prepared in double distilled water (12.5 gm in 50 mL, 25% concentration) by stirring the mixture at 40° C. for 5 minutes. An amorphous form of_rebaudioside A was formed by immediately using the clear solution for spray drying with the Lab-Plant spray drier SD-04 instrument (Lab-Plant Ltd., West Yorkshire, U.K.). The solution was fed through the feed pump into the nozzle atomizer which atomized it into a spray of droplets with the help of a constant flow of nitrogen/air. […] This dry powder (11-12 g, H2O 6.74%) was discharged continuously from the drying chamber and was collected in a bottle.", "data": [{"substance": "rebaudioside A [Form 4]", "values": [{"measurement": "solubility in water at room temperature", "result": "> 35.0", "unit": "%"}]}]}
